According to patent publication US11547690B1, “Chemotherapeutic self-nanoemulsifying drug delivery systems and uses thereof” (KING ABDULAZIZ UNIVERSITY, priority 2022, dated 2023):
In brackets after ≈: the same amount, converted by molar mass. Like-named read-outs stand apart in the source and are kept apart here.

Columns and labels:
[1] = cited from earlier work
[2] = Equilibrium solubility evaluation in lipids and cosolvents; type: physicochemical; conditions: for solubility at 72 h: 37 °C, thermodynamic from solid, read-out: solubility of PTX
Experimental: Solubility evaluation of PTX was carried out in various oils and cosolvents till attaining equilibrium by addition of excess quantity of drug to 1 gm of each of the excipient in culture vials and mixed well using vortex mixer (Remi Instruments, Mumbai, India). The sealed vials were kept on water bath shaker at 37±0.5° C. for 72 h for 150 strokes per minute. After specified time period, the samples were centrifuged at 3,000 rpm (402.5×g) for 15 minutes using a laboratory centrifuge (Remi Instruments, Mumbai, India). Drug was extracted in acetonitrile and supernatant fraction was filtered through 0.45 μm membrane filter, suitably diluted and analyzed by previously developed HPLC method.

## CC(=O)O[C@H]1C(=O)[C@@]2(C)[C@H]([C@H](OC(=O)c3ccccc3)[C@]3(O)C[C@H](OC(=O)[C@H](O)[C@@H](NC(=O)c4ccccc4)c4ccccc4)C(C)=C1C3(C)C)[C@]1(OC(C)=O)CO[C@@H]1C[C@@H]2O [PTX, Paclitaxel]
[1]
  oral bioavailability: 5%
[2]; aqueous with cosolvent or surfactant or cyclodextrin, in Tween® 80, 37±0.5° C., 72 h
  solubility at 72 h: 78 mg/mL (≈ 91.3 mM)
[2]; aqueous with cosolvent or surfactant or cyclodextrin, in surfactin
  solubility at 72 h: 106 mg/mL (≈ 124 mM)
[2]; organic solvent or mixture, in Transcutol® HP, 37±0.5° C., 72 h
  solubility at 72 h: 235 mg/mL (≈ 275 mM)
[2]; in 1:1 ratio mixture of ethyl oleate:Plurol® Oleique, 37±0.5° C., 72 h
  solubility of PTX: 198.5 mg/mL
